Source: article PMC3747624, “Cloning and Characterization of EF-Tu and EF-Ts from Pseudomonas aeruginosa” (BioMed Research International, 2013)
Read-outs that look alike come from different tables or passages of the source. Values belong to the molecule of their own block, whether it stands above or below them.

Tests used:
P. aeruginosa EF-Tu [1] = molecular target: T1, P. aeruginosa EF-Tu (Pseudomonas aeruginosa, UniProt P09591); assay: GDP exchange initial velocity assay (nitrocellulose filter binding); assay type: biochemical; settings: for Km: EF-Tu 0.64 μM, 37°C, Lineweaver-Burk, read-out: KM for the interaction of EF-Tu with GDP
T1 construct: made in house; host or cells: E. coli Rosetta 2(DE3), pET101/D-TOPO
T1 sequence (P09591 whole entry): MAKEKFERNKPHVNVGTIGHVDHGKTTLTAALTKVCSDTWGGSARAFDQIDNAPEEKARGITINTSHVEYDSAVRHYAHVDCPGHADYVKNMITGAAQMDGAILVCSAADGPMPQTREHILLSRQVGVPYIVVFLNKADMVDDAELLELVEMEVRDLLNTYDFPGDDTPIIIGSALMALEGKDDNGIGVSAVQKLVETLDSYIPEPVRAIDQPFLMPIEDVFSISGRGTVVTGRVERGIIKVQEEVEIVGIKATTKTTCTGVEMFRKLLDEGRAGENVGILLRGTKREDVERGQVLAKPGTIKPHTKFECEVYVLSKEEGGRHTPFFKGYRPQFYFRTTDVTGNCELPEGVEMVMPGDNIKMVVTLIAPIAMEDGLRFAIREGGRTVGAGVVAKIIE
Experimental: Nitrocellulose filter binding assays were used to determine GDP exchange by EF-Tu as previously described. Assays to determine the initial velocity of GDP exchange were in buffer B (50 mM Tris-HCl, (pH 7.5), 50 mM NH4Cl, and 10 mM MgCl2, 1.0 mM dithiothreitol (DTT)) containing 12 μM [^3H]GDP (500 cpm/pmol). Reactions were incubated at 37°C and were stopped by diluting the reaction mix to 2 mL in buffer B and immediately filtered through nitrocellulose (Whatman; Protran BA 85). Filters were washed three times with 2 mL of buffer B and allowed to dry, and the amount of EF-Tu·[^3H]GDP complex retained was determined by scintillation counting (Beckman Coulter LS 6500). Initial velocity reactions were from 1 to 4 min, and GDP concentrations were varied as indicated.
Historically, the GDP exchange assay has been used to determine the activity of EF-Tu. […] The kinetic parameters KM and Vmax for the interaction of P. aeruginosa EF-Tu with GDP were determined by inserting the initial velocity data into Lineweaver-Burk plots (Figure 4(b)).

E. coli EF-Tu = settings: cited from earlier work
P. aeruginosa EF-Tu [2] = molecular target: T1, P. aeruginosa EF-Tu; assay: Equilibrium dissociation constants of EF-Tu·GDP and EF-Tu·GTP complexes (dilution, nitrocellulose filter binding)
Experimental: Reactions were carried out to determine the equilibrium dissociation constants (K GDP and K GTP) for the interaction of P. aeruginosa EF-Tu with GDP and GTP. The reaction was carried out in buffer B containing 1.3 μM total P. aeruginosa EF-Tu and 12 μM [^3H]GDP (500 cpm/pmol) or [^3H]GTP (750 cpm/pmol). EF-Ts was added to 0.05 μM as indicated. To form EF-Tu·nucleotide complexes, the reactions were incubated for 2 h at 0°C. To determine the total amount of complex formed (defined as active amounts of EF-Tu), reactions were immediately filtered through nitrocellulose filters following incubation. Reactions to determine K GDP and K GTP were diluted by the addition of 5 mL of buffer B that had been preincubated at 37°C, 23°C, or 0°C. Incubation was continued at those temperatures after dilution for 10, 20, and 30 min, respectively. Remaining amounts of the complexes were determined by filtration through nitrocellulose filters.
The percentage of EF-Tu capable of exchanging GDP (active EF-Tu) was determined from assays described in Section 3.6 which measured the total EF-Tu·[^3H]GDP complexes formed. In these assays, saturating amounts of [^3H]GDP (12 μM) were incubated with EF-Tu on ice for 2 h, and the total labeled EF-Tu·[^3H]GDP complex was determined using nitrocellulose filter binding, which retained the complex but not free GDP. The maximum amount of EF-Tu·GDP complex observed would be equivalent to the concentration of EF-Tu capable of exchanging GDP. Approximately 50% of EF-Tu was capable of forming an EF-Tu·[^3H]GDP complex. In the subsequent experiments containing EF-Tu, the results were based on the concentration of active EF-Tu.
The equilibrium dissociation constants for the EF-Tu·GDP (K GDP) and EF-Tu·GTP (K GTP) complexes were calculated from measurements of the extent of dissociation of the complexes in dilute solutions. Both complexes were formed by incubation at […] for 2 h in 50 μL reactions (Section 3.3). […] To determine dissociation, the 50 μL reactions were diluted by addition of 5 mL of reaction mix (minus enzyme and nucleotide) that had been preincubated to 37°C, 23°C, or 0°C, and incubation was continued at these temperatures for 10, 20, and 30 min, respectively. These were the conditions used to determine the K GDP for interaction of E. coli EF-Tu with GDP, and we maintained the same conditions in the determination of the K GTP.
The concentration of complex immediately after dilution was approximately 6.0 × 10^−3 μM. After incubation, the remaining EF-Tu·GDP complex was determined. Total GDP was calculated as the amount of added [^3H]GDP plus GDP that had copurified with EF-Tu. Free GDP was the amount of total GDP minus complexes formed, and free EF-Tu was the amount of initial complex minus remaining complex. The equilibrium dissociation constants for the complexes were calculated using the following equation: (1) KGD/TP=[EF−Tufree][GD/TPfree]/[EF−Tu·GD/TP]. We observed KGDP values for EF-Tu that ranged from 30 to 75 nM in the absence of EF-Ts at the temperatures in which the EF-Tu·GDP complex was allowed to dissociate (Table 2). Previous studies to determine the KGDP governing the binding of GDP to EF-Tu in the E. coli system included EF-Ts in the assays, and therefore we also carried out assays to determine the KGDP in the presence of EF-Ts. There was no statistical change of the KGDP observed in the presence of EF-Ts (30 to 40 nM). These values are within 3-fold of that seen in the E. coli system in which the equilibrium dissociation constant (5 to 10 nM) was determined in the presence of EF-Ts.

Leu-tRNA^Leu and GTP = Leu-tRNA^Leu and GTP (Pseudomonas aeruginosa, UniProt P09591); settings: 1.2 μM [3H]Leu-tRNA^Leu, 0.5 mM GTP, 15 min 4°C, RNase A
Leu-tRNA^Leu and GTP, sequence (P09591 whole entry): as above
Experimental: Ternary complex formation was assayed by examining the ability of EF-Tu to protect [^3H]Leu-tRNA^Leu ) from digestion by RNase A [21, 22]. EF-Tu (0, 0.6, 0.9, 1.2, 1.5, 1.8, 2.1, and 2.4 μM) was incubated in reaction mixtures (50 μL) containing 1.2 μM [^3H]Leu-tRNA^Leu, 0.5 mM GTP, 50 mM Tris-HCl, (pH 7.5), 1 mM DTT, 50 mM NH4Cl, and 6.5 mM MgCl2 for 15 min at 4°C. RNAase A was then added to a final concentration of 0.02 mg/mL and incubated for an additional 20 s. The reactions were stopped by the addition of 3 mL of ice-cold 5% trichloroacetic acid (TCA) and filtered through nitrocellulose filters (Whatman). Retention of [^3H]Leu signified EF-Tu protection of [^3H]Leu-tRNA^Leu from nuclease digestion [22].
To determine the ability of P. aeruginosa EF-Tu to form a ternary complex with Leu-tRNA^Leu and GTP, the nuclease protection assay was used [19, 22]. The nuclease protection assay measures the formation of a ternary complex by the ability of EF-Tu to protect the 3′ end of the tRNA with the covalently attached [^3H]Leu from digestion by RNase A [45]. […] Reactions contained enough RNase A to hydrolyze over 90% of the leucine away from tRNA^Leu .

P. aeruginosa ribosomes = assay: Poly(U)-dependent binding of Phe-tRNA^Phe ternary complex to the ribosomal A-site; assay type: biochemical, Pseudomonas aeruginosa; settings: 3.2 μM EF-Tu, 1 μM ribosomes, GDPNP
Experimental: To determine ternary complex binding to the ribosome, a mixture containing 50 mM Tris-HCl, (pH 7.5), 0.1 mM spermine, 40 mM KCl, 4 mM MgCl2, 1.0 mM DTT, 0.3 mM GTP or guanosine 5′-[β,γ-imido]triphosphate (GDPNP), 0.15 mg/mL poly(U) mRNA, 0.06 μM P. aeruginosa EF-Ts, 3.2 μM EF-Tu, 1.0 μM P. aeruginosa ribosomes, and 0.75 μM [^3H]Phe-tRNA^Phe (25 cpm/pmol) was used. The concentration of EF-Tu was varied from 0.32 to 1.6 μM as indicated. All components were preincubated at 37°C for 15 min in the absence of ribosomes to allow ternary complex formation. Ribosomes were then added, and incubation was continued for an additional 15 min at the same temperature. The amounts of [^3H]Phe-tRNA^Phe bound to the ribosome, representing ternary complex, were analyzed using glass microfiber filter (Whatman) binding as previously described. Control reactions lacked either EF-Tu or ribosomes.
Aminoacylated tRNA is bound at the ribosomal A-site in a ternary complex. The amount of aminoacylated tRNAs that can be bound to the A-site of the ribosome in a ternary complex was measured using [^3H]Phe-tRNA^Phe in poly(U)-dependent assays. In the absence of poly(U), a basal level of ternary complex will bind to the ribosome. In these assays, GTP was replaced with the nonhydrolyzable analog GDPNP to prevent hydrolysis of the nucleotide and dissociation of EF-Tu. […]

[3] = molecular target: Pseudomonas aeruginosa elongation factor Tu (Pseudomonas aeruginosa PAO1) (UniProt P09591)
Pseudomonas aeruginosa elongation factor Tu (Pseudomonas aeruginosa PAO1), sequence (P09591 whole entry): as above

Molecule: Nc1nc2c(ncn2[C@@H]2O[C@H](COP(=O)(O)OP(=O)(O)O)[C@@H](O)[C@H]2O)c(=O)[nH]1 [GDP]
kcat obs for exchange of GDP by EF-Tu (P. aeruginosa EF-Tu [1]; absence of EF-Ts): 0.003 s⁻¹
Km (P. aeruginosa EF-Tu [1]; absence of EF-Ts): 33 µM
kcat obs for exchange of GDP by EF-Tu (P. aeruginosa EF-Tu [1]; presence of EF-Ts 0.01 μM): 0.005 s⁻¹
Km (P. aeruginosa EF-Tu [1]; presence of EF-Ts 0.01 μM): 2 µM
GDP bound more tightly than GTP (E. coli EF-Tu): up to 100 fold
Kd (P. aeruginosa EF-Tu [2]; EF-Ts 0, 0°C, read-out: K GDP): 58 nM
Kd (P. aeruginosa EF-Tu [2]; EF-Ts 0, 23°C, read-out: K GDP): 38 nM
Kd (P. aeruginosa EF-Tu [2]; EF-Ts 0, 37°C, read-out: K GDP): 72 nM
Kd (P. aeruginosa EF-Tu [2]; EF-Ts 0.5 ×10^−3 μM, 0°C, read-out: K GDP): 43 nM
Kd (P. aeruginosa EF-Tu [2]; EF-Ts 0.5 ×10^−3 μM, 23°C, read-out: K GDP): 30 nM
Kd (P. aeruginosa EF-Tu [2]; EF-Ts 0.5 ×10^−3 μM, 37°C, read-out: K GDP): 34 nM

Molecule: Nc1nc2c(ncn2[C@@H]2O[C@H](COP(=O)(O)OP(=O)(O)OP(=O)(O)O)[C@@H](O)[C@H]2O)c(=O)[nH]1 [GTP]
Kd (P. aeruginosa EF-Tu [2]; EF-Ts 0, 0°C, read-out: K GTP): 150 nM
Kd (P. aeruginosa EF-Tu [2]; EF-Ts 0, 23°C, read-out: K GTP): 123 nM
Kd (P. aeruginosa EF-Tu [2]; EF-Ts 0, 37°C, read-out: K GTP): 175 nM
Kd (P. aeruginosa EF-Tu [2]; EF-Ts 0.5 ×10^−3 μM, 0°C, read-out: K GTP): 156 nM
Kd (P. aeruginosa EF-Tu [2]; EF-Ts 0.5 ×10^−3 μM, 23°C, read-out: K GTP): 125 nM
Kd (P. aeruginosa EF-Tu [2]; EF-Ts 0.5 ×10^−3 μM, 37°C, read-out: K GTP): 190 nM
binding of GTP weaker than binding of GDP (KGTP vs KGDP) (P. aeruginosa EF-Tu [2]; P. aeruginosa EF-Tu): up to 6 fold

Molecule: EF-Tu: recombinant elongation factor Tu from Pseudomonas aeruginosa, cloned, expressed and purified
specific activity for the exchange of GDP by EF-Tu (P. aeruginosa EF-Tu [1]; absence of EF-Ts): 0.0047 µmol/min/mg
EF-Tu active in ternary complex formation (Leu-tRNA^Leu and GTP): Up to 20%
EF-Tu capable of forming an EF-Tu·[3H]GDP complex (active EF-Tu) (P. aeruginosa EF-Tu [2]; 12 μM [3H]GDP, on ice 2 h): Approximately 50%
EF-Tu forming a complex with each form of the nucleotide (GDP, GTP) (P. aeruginosa EF-Tu [2]; incubation 2 h in 50 μL reactions): approximately 50%
share of the ternary complex formed that bound to the ribosome (P. aeruginosa ribosomes; 15 min): approximately 90%
ribosomes with ternary complex bound to the A-site (P. aeruginosa ribosomes; within 15 min, 37°C): approximately 50%

[3H]GDP exchange by EF-Tu (0.64 uM, 1 uM GDP) with 0.05 uM EF-Ts against without EF-Ts, nitrocellulose filter binding, 15 to 120 s, 37°C [3]: 7 to 8 fold
B1: Pseudomonas aeruginosa elongation factor Ts (natural protein)
chain: AEITAAMVKELRERTGLGMMECKKALTAAGGDIEKAIDDMRAAGAIKAAKKAGNIAAEGSIAVKIAADNKAAVIIEVNSQTDFLALQDDFKGFVAESLEKAFNEKLTDAAPLVEAREEARLALVAKTGENVNIRRLTRVEGDVVGAYLHGHRIGVVVNLKGGNPELAKDIAMHVAASNPQFLSASEVSEEAIAKEKEIFLALNADKIAGKPENIVENMVKGRISKFLAEASLVEQPFVKNPEVKVGDLAKQAGAEIVSFVRYEVGEGIEKAEVDFAAEVAAQVAATKQ
